# Experiments:
# topoisomerase II = target: T1, topoisomerase II (Homo sapiens, UniProt P11388); assay: kDNA decatenation assay (Topo II assay); type: biochemical; set-up: key: + (some inhibition); + (some inhibition) < ++ < +++; ++ < +++ < ++++; ++++ (complete inhibition); conditions: kDNA substrate, 37° C. for 30 min, agarose gel
# T1 construct: purchased TopoGEN, Inc
# Protocol: The ability of compounds of the formulae (I) or (Ia) to inhibit the activity of topoisomerase II was examined with a kDNA decatenation assay (TopoGEN, Inc. Port Orange, Fla.). Substrate kDNA was mixed with compounds and incubated at 37° C. for 30 min. The reaction was stop by adding ⅕ volume of stop buffer. 20 μl of the reaction was loaded on 1% agarose gel. Image of decatenation of kDNA by compounds was taken by Kodak Image Station 440. Table 1 indicates the ability of compound 1 inhibiting the activity of topoisomerase II.
# [1] = tested on: K562 chronic myelogenous leukemia cells; assay: Cell viability, Alamar Blue assay; conditions: Homo sapiens, K562, 72 h, read-out: IC50 (cell viability)
# Protocol: Human K562 chronic myelogenous leukemia cells (American Type Culture Collection) were grown in RPMI medium with 2 mM L-glutamine, antibiotics (100 IU/ml penicillin and 100 μg/ml streptomycin) and 10% fetal bovine serum (Sigma Aldrich). Cells were maintained at 37° C., 5% CO2 atmosphere and subcultured at 1×10^6 cells/mL.
# Cell viability was measured using the Alamar Blue assay (Invitrogen). In brief, cells were plated in 96-well plates in triplicate at 2000 cells per well and incubated at 37° C., 5% CO2 atmosphere for 24 hr prior to the addition of drug or vehicle (0.3% DMSO) to the culture medium. After 72 hr, 10 μl/well Alamar Blue was added to the wells and incubated for an additional 3 hr at 37° C., 5% CO2 atmosphere. Fluorescence (560Ex/590Em nM) was measured with a SpectraMax microplate reader (Molecular Devices) and the resulting data were used to calculate cell viability, normalized to vehicle control.
# After 72 hr exposure to drug, cell viability was measured and results were fit to a four parameter logistic model (XLFit, ID Business Solutions) shown in FIG. 1.
# T1 sequence (P11388 whole entry): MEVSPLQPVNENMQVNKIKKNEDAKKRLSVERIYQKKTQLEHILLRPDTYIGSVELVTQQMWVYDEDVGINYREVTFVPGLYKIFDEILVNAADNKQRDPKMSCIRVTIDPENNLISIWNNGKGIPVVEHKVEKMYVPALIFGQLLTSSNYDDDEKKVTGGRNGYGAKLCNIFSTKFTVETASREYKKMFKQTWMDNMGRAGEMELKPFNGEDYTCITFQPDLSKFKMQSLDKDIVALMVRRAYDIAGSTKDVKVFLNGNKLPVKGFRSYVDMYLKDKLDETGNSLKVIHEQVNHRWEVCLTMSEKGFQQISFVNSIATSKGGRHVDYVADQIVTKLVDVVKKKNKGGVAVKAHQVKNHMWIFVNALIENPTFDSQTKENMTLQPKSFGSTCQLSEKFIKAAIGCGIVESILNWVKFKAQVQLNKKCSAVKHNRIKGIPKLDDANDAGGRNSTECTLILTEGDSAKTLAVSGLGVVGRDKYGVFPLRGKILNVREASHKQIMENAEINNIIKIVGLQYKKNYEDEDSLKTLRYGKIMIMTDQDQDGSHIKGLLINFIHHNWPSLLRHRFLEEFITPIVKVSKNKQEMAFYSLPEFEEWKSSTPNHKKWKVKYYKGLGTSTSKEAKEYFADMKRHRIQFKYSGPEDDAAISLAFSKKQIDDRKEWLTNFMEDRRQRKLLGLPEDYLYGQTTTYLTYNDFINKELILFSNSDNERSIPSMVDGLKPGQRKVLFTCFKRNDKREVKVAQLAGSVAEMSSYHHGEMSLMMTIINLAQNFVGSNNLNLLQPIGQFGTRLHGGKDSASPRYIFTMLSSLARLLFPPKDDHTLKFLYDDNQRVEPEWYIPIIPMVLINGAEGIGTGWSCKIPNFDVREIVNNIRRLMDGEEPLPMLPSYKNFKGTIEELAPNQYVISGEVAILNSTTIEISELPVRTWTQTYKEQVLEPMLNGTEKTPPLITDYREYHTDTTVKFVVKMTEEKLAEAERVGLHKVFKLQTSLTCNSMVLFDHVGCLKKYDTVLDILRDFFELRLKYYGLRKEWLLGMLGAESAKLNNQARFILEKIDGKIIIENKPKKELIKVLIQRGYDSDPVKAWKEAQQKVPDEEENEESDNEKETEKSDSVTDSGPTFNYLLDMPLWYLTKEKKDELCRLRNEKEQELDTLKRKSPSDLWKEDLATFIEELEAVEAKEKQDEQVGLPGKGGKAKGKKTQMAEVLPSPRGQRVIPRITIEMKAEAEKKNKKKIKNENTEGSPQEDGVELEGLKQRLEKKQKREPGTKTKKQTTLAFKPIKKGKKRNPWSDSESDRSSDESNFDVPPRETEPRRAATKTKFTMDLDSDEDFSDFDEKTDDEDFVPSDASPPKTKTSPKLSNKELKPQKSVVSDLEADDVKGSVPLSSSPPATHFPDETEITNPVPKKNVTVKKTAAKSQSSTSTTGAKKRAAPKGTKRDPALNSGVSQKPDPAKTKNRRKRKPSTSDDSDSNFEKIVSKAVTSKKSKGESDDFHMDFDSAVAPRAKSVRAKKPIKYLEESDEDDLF
Topo II assay (effectiveness at inhibition) (topoisomerase II),IC50 [1],Compound
+,16 nM,"CC(C)c1cc(-c2nnc(O)n2-c2ccc3c(ccn3C)c2)c(O)cc1O [Compound 1, 3-(2,4-DIHYDROXY-5- ISOPROPYL-PHENYL)-4-(1- METHYL-INDOL-5-YL)-5- HYDROXY-[1,2,4] TRIAZOLE]"
–,21 nM,"COc1cc([C@@H]2c3cc4c(cc3[C@@H](O[C@@H]3O[C@@H]5CO[C@@H](C)O[C@H]5[C@H](O)[C@H]3O)[C@H]3COC(=O)[C@H]23)OCO4)cc(OC)c1O [etoposide, reference compound]"
